Measurements published in patent US20050202111A1, “Anti-Parkinson's disease pharmaceutical and method of use” (priority 2004, published 2005).

Columns and labels:
complex-I = settings: mouse, in vivo; cited from earlier work
[1] = test system: N-methyl-4-phenyl-1,2,3,6-tetrahydropyridine induced dopaminergic neurodegeneration; settings: in vivo; cited from earlier work
mitochondrial complex-I = experiment: In vivo effect on brain mitochondrial complex-I activity (NADH oxidation); parameters: species or system Sprague Dawley rats; settings: intraperitoneally for 2 weeks, brain mitochondrial (P2) fraction
Experimental: Various doses of MPX were administered intraperitoneally to Sprague Dawley rats for 2 weeks, while a control group was treated with saline. The rats were sacrificed one hour after the last injection, and the mitochondrial (P2) fraction was prepared from the dissected rat brains. Mitochondrial complex-I activity was based on the oxidation of NADH (5.6 mg in 1 ml water) measured at 340 nm (Ramsay et al. 1986. “Inhibition of mitochondrial NADH dehydrogenase by pyridine derivatives and its possible relation to experimental and idiopathic parkinsonism,” Biochem Biophys Res Commun 135:269-275 (this references is hereby incorporated by reference in its entirety)).

Structure (SMILES): CC(=O)N[C@@H](CS)C(=O)O [N-acetylcysteine]
- age-related decrease in complex-I activity (complex-I): can protect against age-related decrease in complex-I activity

Structure (SMILES): O=C(O[C@@H]1Cc2c(O)cc(O)cc2O[C@@H]1c1cc(O)c(O)c(O)c1)c1cc(O)c(O)c(O)c1 [(−)-epigallocatechin-3-gallate]
- dopaminergic neurodegeneration [1]: prevents N-methyl-4-phenyl-1,2,3,6-tetrahydropyridine induced dopaminergic neurodegeneration

Structure (SMILES): N[C@@H](Cc1ccc(O)c(O)c1)C(=O)O [Levodopa, L-3,4-dihydroxyphenylalanine]
- mitochondrial complex-I activity (mitochondrial complex-I): significantly inhibitory effect on complex-I
